Like-named read-outs stand apart in the source and are kept apart here.
Experiments:
Type in all cases: biochemical
aggrecanase-1 = target: T1, aggrecanase-1 (Homo sapiens, UniProt O75173); assay: Aggrecanase-1 inhibitory action (Particle Assay, GAG release from aggrecan-containing polyacrylamide particles)
T1 sequence (O75173 213-837): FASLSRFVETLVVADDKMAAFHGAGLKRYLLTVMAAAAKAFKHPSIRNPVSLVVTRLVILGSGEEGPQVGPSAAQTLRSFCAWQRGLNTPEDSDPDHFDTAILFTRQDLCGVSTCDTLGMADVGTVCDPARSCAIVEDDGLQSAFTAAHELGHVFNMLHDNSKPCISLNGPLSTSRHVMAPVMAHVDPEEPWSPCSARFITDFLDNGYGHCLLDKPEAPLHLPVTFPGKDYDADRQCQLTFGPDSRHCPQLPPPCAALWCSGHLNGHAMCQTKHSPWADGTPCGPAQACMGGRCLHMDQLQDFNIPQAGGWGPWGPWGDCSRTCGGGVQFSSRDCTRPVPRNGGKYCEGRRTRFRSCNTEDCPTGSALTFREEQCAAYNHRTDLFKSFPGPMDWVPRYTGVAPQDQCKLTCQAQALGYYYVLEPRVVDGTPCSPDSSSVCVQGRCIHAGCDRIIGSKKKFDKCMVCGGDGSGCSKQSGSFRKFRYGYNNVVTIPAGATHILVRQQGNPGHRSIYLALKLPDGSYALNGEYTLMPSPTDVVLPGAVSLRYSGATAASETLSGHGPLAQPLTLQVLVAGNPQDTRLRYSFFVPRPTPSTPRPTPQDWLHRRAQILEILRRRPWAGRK
Method in brief: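 Readout was dimethylmethylene blue absorbance (595 nm) of glycosaminoglycan liberated into supernatant, calibrated with whale chondroitin sulfate. Substrate was aggrecan in polyacrylamide particles, digested 15 h at 37° C in Tris-HCl; TC50 (μM) derived from inhibition relative to no-enzyme and no-inhibitor controls.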

MMP-1 = target: T2, MMP-1 (Homo sapiens, UniProt P03956); assay: MMP-1 inhibitory action (Type I collagen Activity Measurement kit, FITC-labeled collagen type I)
T2 sequence (P03956 100-469): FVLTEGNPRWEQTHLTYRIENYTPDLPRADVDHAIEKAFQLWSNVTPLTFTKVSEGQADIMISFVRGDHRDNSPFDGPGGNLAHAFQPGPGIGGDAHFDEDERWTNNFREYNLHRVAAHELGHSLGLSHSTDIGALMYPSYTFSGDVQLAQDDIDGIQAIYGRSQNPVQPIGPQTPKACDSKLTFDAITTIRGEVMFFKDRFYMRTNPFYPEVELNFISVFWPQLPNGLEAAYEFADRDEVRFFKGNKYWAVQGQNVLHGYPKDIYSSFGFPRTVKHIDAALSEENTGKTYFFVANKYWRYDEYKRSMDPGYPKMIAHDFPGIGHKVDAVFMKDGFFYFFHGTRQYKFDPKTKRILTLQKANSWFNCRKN

Recombinant Human MMP-13 = target: T3, Recombinant Human MMP-13 (Homo sapiens, UniProt P45452); assay: MMP-13 inhibitory activity (MMP-13 specific fluorescent substrate with quencher)
T3 construct: purchased R&D systems 511-MM
Method in brief: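 IC50 (μM) derived from % inhibition, normalised to wells without enzyme and without inhibitor, fluorescence read at 325/405 nm. Enzyme and compound preceded addition of the quenched 7-MCA…DPA substrate; Tris-HCl buffer, 25 °C for 1 h, acetic-acid stop.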

[1] = Experimental Example 1, read-out: IC50 AG1
[2] = Experimental Example 2, read-out: IC50 MMP1
[3] = Experimental Example 3, read-out: IC50 MMP13
[4] = aggrecanase-1 inhibitory action, read-out: IC50 AG1 (Experimental Example 1)
[5] = MMP-1 inhibitory action, FITC-labeled collagen type I, 37° C. for 3 hr, read-out: IC50 MMP1 (Experimental Example 2)
[6] = Recombinant Human MMP-13, fluorescent substrate, 25° C. for 1 h, read-out: IC50 MMP13 (Experimental Example 3)

IC50 (aggrecanase-1; [1]) [nM] | IC50 (MMP-1; [2]) [nM] | IC50 (Recombinant Human MMP-13; [3]) [nM] | IC50 (aggrecanase-1; [4]) [nM] | IC50 (MMP-1; [5]) [nM] | IC50 (Recombinant Human MMP-13; [6]) [nM] | Compound
< 1000 | ≥ 1000 | < 100 | – | – | – | CC1[C@H](c2ccccc2)[C@]1(NS(=O)(=O)N1CCN(c2ccc(Cl)cc2)CC1)C(=O)O (stereo partly drawn) [Example 2-426]
– | – | – | ≥ 1000 | ≥ 10000 | ≥ 10000 | Cc1ncc(-c2ccc(S(=O)(=O)N[C@@]3(C(=O)O)C[C@@H]3c3ccccc3)s2)s1 [Example 2-55]
– | – | – | < 1000 | ≥ 10000 | < 1000 | O=C(O)C1(NS(=O)(=O)c2ccc(-c3ccc(Cl)cc3)s2)CC1c1ccccc1OCc1ccccc1 (stereo not drawn) [Example 1-84]
– | – | – | < 1000 | ≥ 10000 | < 100 | CC(C)(CO)NC(=O)c1cccc(C2CC2(NS(=O)(=O)c2ccc(-c3ccc(Cl)cc3)s2)C(=O)O)c1 (stereo not drawn) [Example 2-74]
– | – | – | ≥ 1000 | ≥ 10000 | ≥ 1000 | CC1(C)CC1(NS(=O)(=O)c1ccc(-c2ccc(Cl)cc2)s1)C(=O)O (stereo not drawn) [Example 2-147]
< 1000 | ≥ 1000 | < 100 | – | – | – | O=C(O)C1(NS(=O)(=O)c2ccc(-c3ccc(Cl)cc3)s2)C2CCc3ccccc3C21 (stereo not drawn) [Example 2-350]
– | – | – | < 100 | ≥ 1000 | < 1000 | O=C(O)C1(NS(=O)(=O)c2ccc(-c3ccc(Cl)cc3)s2)CC1c1cccc([N+](=O)[O-])c1 (stereo not drawn) [Example 1-127]
– | – | – | < 1000 | ≥ 10000 | < 1000 | O=C(O)C1(NS(=O)(=O)c2ccc(-c3ccc(Cl)cc3)s2)CC1C1CCC1 (stereo not drawn) [Example 2-58]
< 100 | < 1000 | < 100 | – | – | – | CC1[C@H](c2ccccc2)[C@]1(NS(=O)(=O)c1ccc(-c2cc(C#N)on2)s1)C(=O)O (stereo partly drawn) [Example 2-579]
< 100 | < 1000 | < 1000 | – | – | – | C[C@]1(c2ccccc2)C[C@@]1(NS(=O)(=O)c1ccc(-c2cc(C(F)F)no2)s1)C(=O)O [Example 2-422]
– | – | – | < 1000 | ≥ 10000 | < 1000 | CN1CCN(C(=O)Cc2ccccc2C2CC2(NS(=O)(=O)c2ccc(-c3ccc(Cl)cc3)s2)C(=O)O)CC1 (stereo not drawn) [Example 2-195]
– | – | – | < 1000 | ≥ 1000 | < 1000 | O=C(O)C1(NS(=O)(=O)c2ccc(-c3ccc4c(c3)Cc3ccccc3-4)cc2)CC1c1ccccc1 (stereo not drawn) [Example 1-54]
– | – | – | < 100 | < 1000 | < 100 | O=C(O)[C@]1(NS(=O)(=O)c2ccc(-c3cc4ccccc4s3)s2)C[C@@H]1c1ccccc1 [Example 2-113]
– | – | – | < 1000 | ≥ 1000 | < 100 | Cc1ccc(-c2ccc(S(=O)(=O)NC3(C(=O)O)CC3c3ccccc3)s2)cc1 (stereo not drawn) [Example 2-20]
– | – | – | ≥ 10000 | ≥ 10000 | ≥ 10000 | CN1CCN(c2ccc(C3CC3(NS(=O)(=O)c3ccc(-c4ccc(Cl)cc4)s3)C(=O)O)cc2)CC1 (stereo not drawn) [Example 2-247]
< 100 | ≥ 10000 | ≥ 1000 | – | – | – | CC1(C)C(c2ccccc2)C1(NS(=O)(=O)c1ccc(-c2ccc(Cl)cc2)s1)C(=O)O (stereo not drawn) [Example 2-274]
< 1000 | ≥ 1000 | < 100 | – | – | – | CC1[C@H](c2ccccc2)[C@]1(NS(=O)(=O)c1ccc(-c2cn3ccccc3n2)s1)C(=O)O (stereo partly drawn) [Example 2-570]
< 100 | ≥ 1000 | < 100 | – | – | – | NC(=O)OCCc1cccc(C2CC2(NS(=O)(=O)c2ccc(-c3cc(C(F)(F)F)on3)s2)C(=O)O)c1 (stereo not drawn) [Example 2-270]
– | – | – | ≥ 10000 | ≥ 10000 | ≥ 10000 | O=C(NC1CCCC1)c1ccc(S(=O)(=O)NC2(C(=O)O)CC2c2ccccc2)s1 (stereo not drawn) [Example 2-95]

IC50 (aggrecanase-1; [1]) [nM] | IC50 (MMP-1; [2]) [nM] | IC50 (Recombinant Human MMP-13; [3]) [nM] | IC50 (aggrecanase-1; [4]) [nM] | IC50 (MMP-1; [5]) [nM] | IC50 (Recombinant Human MMP-13; [6]) [nM] | Compound
≥ 1000 | ≥ 1000 | < 1000 | – | – | – | O=C(O)[C@]1(NS(=O)(=O)c2ccc(-n3cc(Cl)cn3)nc2)C[C@@H]1c1ccccc1 [Example 2-554]
– | – | – | < 100 | ≥ 1000 | < 100 | O=C(CCc1cccc(C2CC2(NS(=O)(=O)c2ccc(-c3ccc(Cl)cc3)s2)C(=O)O)c1)N1CCOCC1 (stereo not drawn) [Example 2-209]
– | – | – | < 1000 | ≥ 1000 | < 100 | COC(=O)Nc1cccc(C2CC2(NS(=O)(=O)c2ccc(-c3ccc(Cl)cc3)cc2)C(=O)O)c1 (stereo not drawn) [Example 1-41]
< 1000 | ≥ 1000 | < 1000 | – | – | – | O=C(NC1CC1)OCC1(c2ccccc2)CC1(NS(=O)(=O)c1ccc(-c2cc(C(F)(F)F)on2)s1)C(=O)O (stereo not drawn) [Example 2-331]
< 1000 | ≥ 1000 | < 1000 | – | – | – | O=C(NCC1(c2ccccc2)CC1(NS(=O)(=O)c1ccc(-c2ccc(Cl)cc2)s1)C(=O)O)c1ccccn1 (stereo not drawn) [Example 2-368]
< 100 | < 1000 | ≥ 1000 | – | – | – | CC1(c2cccc(F)c2)CC1(NS(=O)(=O)c1ccc(-c2cc(C(F)(F)F)on2)s1)C(=O)O (stereo not drawn) [Example 2-611]
< 100 | < 1000 | < 100 | – | – | – | CC1[C@H](c2ccccc2)[C@]1(NS(=O)(=O)c1ccc(-c2ccc(Cl)c(F)c2)s1)C(=O)O (stereo partly drawn) [Example 2-435]
– | – | – | < 1000 | ≥ 1000 | < 100 | COC(=O)Cc1cccc(C2CC2(NS(=O)(=O)c2ccc(-c3cc(C(F)(F)F)on3)s2)C(=O)O)c1 (stereo not drawn) [Example 2-219]
< 1000 | ≥ 1000 | < 100 | – | – | – | CC1[C@H](c2ccccc2)[C@]1(NS(=O)(=O)c1ccc(-n2cc(C#N)cn2)s1)C(=O)O (stereo partly drawn) [Example 2-580]
– | – | – | < 1000 | ≥ 10000 | < 1000 | O=C(O)C1(NS(=O)(=O)c2ccc(-c3ccc(Cl)cc3)s2)CC1c1ccccc1OCc1ccccn1 (stereo not drawn) [Example 2-23]
– | – | – | < 100 | < 1000 | < 100 | C#Cc1cnn(-c2ccc(S(=O)(=O)N[C@@]3(C(=O)O)[C@H](C)[C@@H]3c3ccccc3)s2)c1 [Example 2-4, (1S,2R,3R)-1-[5-(4-ethynyl-pyrazole-1-yl)-thiophene-2-sulfonylamino]-2-methyl-3-phenyl-cyclopropanecarboxylic acid]
– | – | – | < 1000 | ≥ 10000 | < 1000 | O=C(O)C1(NS(=O)(=O)c2ccc(-c3ccc(O)cc3)s2)CC1c1ccccc1 (stereo not drawn) [Example 2-65]
– | – | – | < 100 | ≥ 10000 | < 100 | CN(Cc1cccnc1)c1cccc(C2CC2(NS(=O)(=O)c2ccc(-c3ccc(Cl)cc3)s2)C(=O)O)c1 (stereo not drawn) [Example 2-37]
– | – | – | < 1000 | ≥ 10000 | < 1000 | CC(=O)N1Cc2ccccc2C2(C1)CC2(NS(=O)(=O)c1ccc(-c2ccc(Cl)cc2)s1)C(=O)O (stereo not drawn) [Example 2-207]
– | – | – | < 100 | ≥ 1000 | < 100 | O=C(O)[C@]1(NS(=O)(=O)c2ccc(-c3ccc(Cl)cc3)s2)C[C@@H]1c1cccc(NCc2cccnc2)c1 [Example 2-173]
< 100 | < 1000 | < 100 | – | – | – | O=C(O)C1(NS(=O)(=O)c2ccc(-c3ccc(Cl)cc3)s2)CC1(CCCn1cccn1)c1ccccc1 (stereo not drawn) [Example 2-273]
– | – | – | < 1000 | ≥ 1000 | < 1000 | O=C(O)C1(NS(=O)(=O)c2ccc(-c3ccc(Cl)c(Cl)c3)s2)CC1c1ccccc1 (stereo not drawn) [Example 2-18]
– | – | – | ≥ 10000 | ≥ 10000 | ≥ 10000 | CC(C)(C)C#Cc1ccc(S(=O)(=O)N[C@@]2(C(=O)O)C[C@@H]2c2ccccc2)s1 [Example 2-132]

Source: patent publication US20080261994A1, “CYCLOPROPANE COMPOUNDS AND PHARMACEUTICAL USE THEREOF” (Japan Tobacco Inc., priority 2003, published 2008)
